According to PMC10746543, “Design principles for cyclin K molecular glue degraders” (Nature Chemical Biology, 2023):
“And” between values parts separate entries of the source, which are not always exact repeats. Identical values can stand only once. Like-named read-outs stand apart in the source and are kept apart here.

Target: CDK12–cyclin K (Homo sapiens, UniProt Q9NYV4)
Test: Lanthascreen kinase binding assay, CDK12
Conditions: for Lanthascreen raw signal, sheet CDK12: duplicates
Method: Lanthascreen experiments were performed using commercially available reagents (Thermo Fisher) and according to the manufacturer’s instructions.

[1] = Supplementary Table 2, read-out: Lanthascreen IC50 [nM] CDK12
[2] = compound 0.038147 nM, series r13
[3] = compound 0.152588 nM, series r13
[4] = compound 0.610352 nM, series r13
[5] = compound 9.76563 nM, series r13
[6] = compound 39.0625 nM, series r13
[7] = compound 0.038147 nM, series r49
[8] = compound 0.152588 nM, series r49
[9] = compound 0.610352 nM, series r49
[10] = compound 9.76563 nM, series r49
[11] = compound 39.0625 nM, series r49

CDK12–cyclin K, sequence (Q9NYV4 713-1052): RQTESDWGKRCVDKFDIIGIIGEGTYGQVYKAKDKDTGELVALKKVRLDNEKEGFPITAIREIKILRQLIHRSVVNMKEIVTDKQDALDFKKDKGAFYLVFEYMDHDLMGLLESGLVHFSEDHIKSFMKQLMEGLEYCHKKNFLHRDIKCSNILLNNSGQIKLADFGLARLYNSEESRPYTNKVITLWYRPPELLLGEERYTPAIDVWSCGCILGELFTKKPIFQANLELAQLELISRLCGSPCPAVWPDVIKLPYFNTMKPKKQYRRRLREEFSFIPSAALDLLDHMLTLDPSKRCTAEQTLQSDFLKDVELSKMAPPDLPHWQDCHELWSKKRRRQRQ
CDK12–cyclin K, sequence (O75909 1-267 partner limits assumed): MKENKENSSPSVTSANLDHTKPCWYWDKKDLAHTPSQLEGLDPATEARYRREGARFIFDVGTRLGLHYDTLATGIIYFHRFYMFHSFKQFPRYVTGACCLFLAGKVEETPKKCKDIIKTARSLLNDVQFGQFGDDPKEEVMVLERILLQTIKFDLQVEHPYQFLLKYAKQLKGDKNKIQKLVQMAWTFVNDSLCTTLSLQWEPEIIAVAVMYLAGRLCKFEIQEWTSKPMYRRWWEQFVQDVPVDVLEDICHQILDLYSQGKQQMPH

SMILES	IC50 [1]	Lanthascreen raw signal, sheet CDK12 [2]	Lanthascreen raw signal, sheet CDK12 [3]	Lanthascreen raw signal, sheet CDK12 [4]	Lanthascreen raw signal, sheet CDK12 (compound 1.02544 nM, series r1)	Lanthascreen raw signal, sheet CDK12 (compound 3.15521 nM, series r1)	Lanthascreen raw signal, sheet CDK12 (compound 9.46563 nM, series r1)	Lanthascreen raw signal, sheet CDK12 [5]	Lanthascreen raw signal, sheet CDK12 (compound 31.5521 nM, series r1)	Lanthascreen raw signal, sheet CDK12 [6]	Lanthascreen raw signal, sheet CDK12 (compound 99.3891 nM, series r1)	Lanthascreen raw signal, sheet CDK12 (compound 156.25 nM, series r13)	Lanthascreen raw signal, sheet CDK12 (compound 315.521 nM, series r1)	Lanthascreen raw signal, sheet CDK12 (compound 625 nM, series r13)	Lanthascreen raw signal, sheet CDK12 (compound 2500 nM, series r13)	Lanthascreen raw signal, sheet CDK12 (compound 3155.21 nM, series r1)	Lanthascreen raw signal, sheet CDK12 (compound 10000 nM, series r13)	Lanthascreen raw signal, sheet CDK12 (compound 10002 nM, series r1)	Lanthascreen raw signal, sheet CDK12 [7]	Lanthascreen raw signal, sheet CDK12 [8]	further results
Cc1cccc(Nc2nc(CC(=O)Nc3ncc(C)s3)cs2)n1 [HQ461]	> 10000 nM	0.01223 and 0.01089	0.01192 and 0.01181	0.01147 and 0.01206	0.009388 and 0.008109	0.008061 and 0.009006	0.008944 and 0.009513	0.01062 and 0.01153	0.009567 and 0.009846	0.01003 and 0.0116	0.009103 and 0.01044	0.0115 and 0.0116	0.007883 and 0.008557	0.01055 and 0.01154	0.01098 and 0.01126	0.006491 and 0.00695	0.01006 and 0.01041	0.00959 and 0.009612			IC50 (Lanthascreen, read-out: CDK12 inhibition): > 10000 nM
Cn1cc(-n2cnc3c(NCc4nc5cc(Cl)c(Cl)cc5[nH]4)nc(N4CCOCC4)nc32)cn1 [SR-4835]		0.01046 and 0.009983	0.009614 and 0.01041	0.01066 and 0.01021	0.008952 and 0.009485	0.008128 and 0.008332	0.008981 and 0.006574	0.009284 and 0.009045	0.007535 and 0.008876	0.008439 and 0.008567	0.006758 and 0.007046	0.008038 and 0.008664	0.006236 and 0.005797	0.008328 and 0.007759	0.007658 and 0.007398	0.006081 and 0.005159	0.007533 and 0.00783	0.004606 and 0.00667	0.007647 and 0.00729	0.009969 and 0.01054	Lanthascreen raw signal, sheet CDK12 (compound 0.038147 nM, series r37): 0.01351 and 0.01182; Lanthascreen raw signal, sheet CDK12 (compound 0.152588 nM, series r37): 0.01248 and 0.01201; Lanthascreen raw signal, sheet CDK12 (compound 0.610352 nM, series r37): 0.01219 and 0.01189; Lanthascreen raw signal, sheet CDK12 [9]: 0.01058 and 0.01056; Lanthascreen raw signal, sheet CDK12 (compound 9.76563 nM, series r37): 0.009426 and 0.01016; Lanthascreen raw signal, sheet CDK12 [10]: 0.009267 and 0.008766; Lanthascreen raw signal, sheet CDK12 (compound 39.0625 nM, series r37): 0.009028 and 0.008999; Lanthascreen raw signal, sheet CDK12 [11]: 0.00795 and 0.007253; Lanthascreen raw signal, sheet CDK12 (compound 156.25 nM, series r37): 0.006404 and 0.007018; Lanthascreen raw signal, sheet CDK12 (compound 156.25 nM, series r49): 0.006482 and 0.006079; Lanthascreen raw signal, sheet CDK12 (compound 625 nM, series r37): 0.006628 and 0.006561; Lanthascreen raw signal, sheet CDK12 (compound 625 nM, series r49): 0.005855 and 0.00595; Lanthascreen raw signal, sheet CDK12 (compound 2500 nM, series r37): 0.006178 and 0.006049; Lanthascreen raw signal, sheet CDK12 (compound 2500 nM, series r49): 0.005776 and 0.005723; Lanthascreen raw signal, sheet CDK12 (compound 10000 nM, series r37): 0.005313 and 0.005643; Lanthascreen raw signal, sheet CDK12 (compound 10000 nM, series r49): 0.005957 and 0.005417
CC(C)c1nn(-c2c(Cl)cccc2Cl)c2nc(Cc3ccc(OCCO)cc3)[nH]c(=O)c12 [compound 21195]	31 nM				0.009771 and 0.007848	0.009162 and 0.009522	0.007787 and 0.0086		0.006914 and 0.007088		0.004636 and 0.007689		0.005556 and 0.004599			0.006552 and 0.005285		0.00595 and 0.006099	0.008046 and 0.008167	0.01001 and 0.009391	Lanthascreen raw signal, sheet CDK12 [9]: 0.008764 and 0.009174; Lanthascreen raw signal, sheet CDK12 (compound 0.76 nM, series r25): 0.01117 and 0.01013; Lanthascreen raw signal, sheet CDK12 (compound 4.57247 nM, series r25): 0.01016 and 0.01236; Lanthascreen raw signal, sheet CDK12 [10]: 0.007441 and 0.00728; Lanthascreen raw signal, sheet CDK12 (compound 13.7174 nM, series r25): 0.01024 and 0.009436; Lanthascreen raw signal, sheet CDK12 [11]: 0.007229 and 0.006516; Lanthascreen raw signal, sheet CDK12 (compound 41.1523 nM, series r25): 0.009216 and 0.008226; Lanthascreen raw signal, sheet CDK12 (compound 123.457 nM, series r25): 0.007812 and 0.006741; Lanthascreen raw signal, sheet CDK12 (compound 156.25 nM, series r49): 0.006172 and 0.006187; Lanthascreen raw signal, sheet CDK12 (compound 370.37 nM, series r25): 0.006605 and 0.00608; Lanthascreen raw signal, sheet CDK12 (compound 625 nM, series r49): 0.006151 and 0.006004; Lanthascreen raw signal, sheet CDK12 (compound 2500 nM, series r49): 0.005584 and 0.005705; Lanthascreen raw signal, sheet CDK12 (compound 3333.33 nM, series r25): 0.006042 and 0.006492; Lanthascreen raw signal, sheet CDK12 (compound 10000 nM, series r25): 0.006222 and 0.005571; Lanthascreen raw signal, sheet CDK12 (compound 10000 nM, series r49): 0.005751 and 0.005801
O=C(CSc1nnc2c(n1)[nH]c1ccccc12)Nc1ccc(Cl)cn1 [dCeMM2]	> 10000 nM	0.0112 and 0.01094	0.01131 and 0.01094	0.0113 and 0.01155	0.009008 and 0.01048	0.01033 and 0.00928	0.007656 and 0.01097	0.01084 and 0.01176	0.008129 and 0.008647	0.01123 and 0.01099	0.008644 and 0.009455	0.01158 and 0.0119	0.008456 and 0.007711	0.01045 and 0.01083	0.01145 and 0.01174	0.008398 and 0.008586	0.01298 and 0.0125	0.01123 and 0.01167			IC50 (Lanthascreen, average, Extended Data Fig. 8, read-out: CDK12 IC50): > 10000 nM
O=C(CSc1nc2ccccc2[nH]1)Nc1ccc(Cl)cn1 [dCeMM3]	2670 nM	0.01104 and 0.01163	0.01112 and 0.01168	0.01247 and 0.01238	0.009603 and 0.009325	0.009514 and 0.008733	0.008364 and 0.009802	0.01196 and 0.01162	0.009806 and 0.008597	0.01144 and 0.01131	0.01036 and 0.01052	0.01124 and 0.01129	0.008735 and 0.009176	0.01063 and 0.01139	0.009917 and 0.009154	0.007612 and 0.007481	0.007835 and 0.008247	0.006896 and 0.007143			
